Blank lines part the entries; values can stand above or below the compound they belong to.
Assays:
[1] = tested on: intracellular zinc in HEK-293 cells; assay: Cellular MR imaging of intracellular zinc, T1 and T2 of cell pellets; assay type: cell-based; conditions: for T2 of cell pellet, zinc-treated samples: then 200 μM Zn^2+
Experimental: (§1) MRI samples prepared as described above were arrayed into microtiter plates and placed in a 40-cm-bore Avance 4.7 T MRI scanner (Bruker, Billerica, Mass.). Unused wells were filled with PBS, and imaging was performed on a 2-mm slice through the sample. A spin echo pulse sequence with multiecho acquisition was used. The TR was fixed for every acquisition, and the TE was in defined increments. For example, for TR=100 ms, TE varied from 10 to 80 ms, with a 10-ms increment. To adjust further the weight between T1 and T2, various TRs were applied and the TE increment was changed accordingly, if necessary. Data matrices of 512×128 points were acquired and zero-filled to 256 points in the second (phase encoding) dimension. Images were reconstructed and analyzed by using custom routines running in Matlab (Mathworks, Natick, Mass.).
To investigate zinc-induced relaxivity changes in compound 2 inside cells, cell pellets were prepared with and without exogenously introduced zinc, and their MR images were recorded and compared. The HEK-293 cell suspension was divided equally into two flasks after a 24-h treatment with 100 μM of compound 2 or Mn-TPPS4. A 200-μM portion of zinc pyrithione was then added to one of the samples and incubated for an additional 10 min. As in the solution studies, comparisons were made by using Mn-TPPS4 as a reference compound. In addition, an untreated cell sample was prepared as a control. The cell suspensions were pelleted by centrifugation, washed, and transferred into a multiwell plate for MRI analysis. A spin echo pulse sequence was used to acquire MRI images.
T1 and T2 were determined by a series of MR images with varied TR or TE, respectively. The values reported are the average from three separate experiments with standard deviations as indicated by the horizontal bars.

[2] = Zinc-dependent MR relaxivity in buffered solutions; assay type: physicochemical; conditions: for zinc-induced change of MR signal in buffered solution: 1 mM Zn^2+, 25 mM Pipes pH 7, T1-weighted 200 μM agent, T2-weighted 500 μM agent with 100 mM KCl; for zinc-induced T2 change at high ionic strength: 100 mM KCl, buffered solution
Experimental: as §1
Insertion of a paramagnetic manganese(III) ion into the porphyrin core of compound 1 rendered the resulting (DPA-C2)2-TPPS3Mn(III) complex (compound 2) an MRI contrast agent. The properties of compound 2 were investigated by using a spin echo pulse sequence to collect images at several echo times (TEs) in parallel. In some experiments, the repetition times (TRs) were varied so that both T1 and T2 could be evaluated. Multiwell plates were used for sample preparation, which allowed several conditions to be investigated in parallel. The well-studied MRI T1 agent, Mn-TPPS4, which contains a similar porphyrin platform as compound 2 but lacks a zinc-binding unit, was chosen as a reference compound.
The zinc-dependent MR relaxivity of compound 2 was first investigated in buffered solutions. Solutions of compound 2 or Mn-TPPS4 in 25 mM Pipes buffer at pH 7.0 were arrayed in microtiter plates. A spin echo pulse sequence was used to acquire an MRI image. […] Addition of 1 mM ZnCl2 to a 200 μM solution of compound 2 dissolved in 25 mM Pipes buffer at pH 7 slowed down the T1 relaxation. […] The T1 values of zinc-free and zinc-saturated solutions were determined at various concentrations of compound 2, from which T1 relaxivity (R1) values could be deduced.
The surrounding wells (not shown) were filled with PBS to maintain a homogenous magnetic field to mark the positions of the samples.
The zinc-induced T2 enhancement depended on the total concentration of compound 2.

[3] = Fluorescence pH profile; assay type: physicochemical; conditions: pH 10.1 to pH 4.5; 5 μM in 100 mM KCl; excitation 416 nm, integrated 550 to 800 nm
Experimental: The pH-sensitivity of compound 1 was then studied. In some cases, it may be advantageous to reduce fluorescence turn-on by protonation for fluorescent zinc(II) sensors, as protonation can diminish the sensitivity of the sensor to zinc by increasing the background signal intensity. […] The pH values of the solution were adjusted by adding an appropriate volume of HCl or KOH stock solution. The fluorescence spectrum was measured upon excitation at 416 nm, and the fluorescence intensity was integrated from 550 to 800 nm.

[4] = Absorption spectrum in buffered neutral aqueous solution; assay type: physicochemical; conditions: Soret band centered at 416 nm; 50 mM Hepes/100 mM KCl, pH 7.0
Experimental: (§2) Millipore water was used to prepare all aqueous solutions. All spectroscopic measurements were performed in buffered solutions containing 50 mM of the buffering species and 100 mM KCl adjusted to the desired pH. A glass electrode (Orion, Boston, Mass.), calibrated before each use, was used to determine solution pH. Solutions of Zn^2+ were prepared from 100 mM stocks of ZnCl2 in water. Absorption spectra were recorded on a 8453A diode array spectrophotometer (Hewlett-Packard, Palo Alto, Calif.) or a Cary 50 Bio UV-visible spectrophotometer (Varian, Palo Alto, Calif.), and fluorescence spectra were obtained with a Quanta Master 4 L-format scanning spectrofluorimeter (Photon Technology International, Lawrenceville, N.J.) equipped with an LPS-220B 75-W xenon lamp and power supply, an A-1010B lamp housing with integrated igniter, a switchable 814 photon-counting/analog photomultiplier detection unit, and a MD-5020 motor driver. Samples for absorption and emission measurements were held in 1×1-cm quartz cuvettes (3.5 mL volume; Stama, Atascadero, Calif.). […] Quantum yields were determined by reference to TPPS4 [0.16 in pH=7 aqueous solution].
The spectroscopic properties of compound 1 were evaluated in buffered neutral aqueous solution (50 mM Hepes/100 mM KCl, pH 7.0). […] Excitation was provided at 418 nm for the emission spectrum, and emission was detected at 648 nm for the excitation spectrum. […]

[5] = Fluorescence metal ion selectivity; conditions: 100 μM metal ion, 5 μM compound, 50 mM Hepes/100 mM KCl, pH 7.0, excitation 418 nm
Experimental: as §2, with “solution]. […]” for “solution].”
Even large excesses of Na^+, K^+, Ca^2+, and Mg^2+, which are biologically relevant, potentially competing, mobile metal ions, barely perturb the fluorescence of the zinc-free and zinc-bound forms of compound 1.

[6] = tested on: intracellular Zn^2+ in HEK-293 cells; assay: Intracellular zinc imaging by fluorescence microscopy; assay type: cell-based; conditions: 5 μM 24 h, 40 μM Zn^2+/pyrithione 10 min
Experimental: The cell fluorescence imaging experiments were performed with an Axiovert 200M inverted epifluorescence microscope (Zeiss, Thomwood, N.Y.) equipped with an EM-CCD digital camera C9100 (Hamamatsu Hamamatsu City, Japan) and a MS200 XY Piezo Z stage (Applied Scientific Instruments, Eugene, Oreg.). An X-Cite 120 metal-halide lamp (EXFO, Quebec, Canada) was used as the light source. The fluorescence images were obtained by using a x63 oil immersion objective lenses and a customized optical filter (exciter: D425/50; emitter: E6001p; beamsplitter: 460dcxr; Chroma Technology, Rockingham, Vt.). The microscope was operated with Volocity software (Improvision, Lexington, Mass.).
Fixed cells were investigated by fluorescence imaging using a customized optical filter (exciter: D425/50; emitter: E6001p; beamsplitter: 460dcxr), which was designed to match the excitation and emission profiles of compound 1. The cell nuclei were costained with the blue fluorescent dye Hoechst 33258 (0.4 μM). The HEK-293 cells were incubated with 5 μM of compound 1 for 24 h before fixing. […] The insets show the corresponding bright-field images (Scale bars: 25 μm).

[7] = tested on: all cell lines tested; assay: Membrane permeability in cell lines; assay type: cell-based
Experimental: Suspension cultures of HEK-293 enabled production of a sizeable cell pellet, which was then plated as an adherent monolayer for fluorescence imaging studies. The monolayer cultures were subcultured five times after the initial plating, grown to 70% confluence on glass cover slips and treated with compound 1 for fluorescence imaging. The cytotoxicity of compound 1 was evaluated in these adherent HEK-293 cells by incubating them with 5 μM of compound 1 for 24 h.

[8] = tested on: HEK-293 cells; assay: Subcellular localization by manganese atomic absorption spectroscopy of cell fractions; assay type: cell-based
Experimental: Cell monolayers were grown in 75-cm plates to 70% confluence and treated with 100 μM of either 2 or Mn-TPPS4, followed by incubation for 24 h. All fractionation steps were performed at 4° C. After twice pelleting by centrifugation (500×g) and washing with PBS, cells were lysed in a low-salt buffer and incubated on ice for 15 min. After centrifugation (420×g, 5 min) the pellet was resuspended in two packed-cell volumes of lysis buffer with 20 strokes of a 27-gauge syringe needle. After centrifugation (11,000×g, 20 min), the supernatant was retained (cytosolic fraction), and the nuclei were lysed in 0.42 M salt with 10 strokes of a 17-gauge syringe needle. After centrifugation (20,000×g, 5 min), the supernatant was obtained as the nuclear fraction.
Manganese atomic absorption spectroscopic analyses of samples were performed on an Aanalyst 300 instrument equipped with an HGA-800 graphite furnace (PerkinElmer, Wellesley, Mass.). Pyrolysis was performed at 1,400° C. for 30 s, and atomization was performed at 2,200° C. for 5 s.
To confirm the membrane permeability and further investigate the subcellular localization of compound 2, the cells were lysed, and nuclear and cytosolic fractions were extracted and analyzed by atomic absorption spectroscopy (AAS).

[9] = tested on: HEK-293 cells; assay: Cytotoxicity in HEK-293 suspension cells, cell density; assay type: cell-based; conditions: 100 μM, 24 h
[10] = HEK-293, 100 μM 24 h, no exogenous zinc
[11] = HEK-293, 100 μM 24 h, then 200 μM zinc pyrithione 10 min

Compound: O=S(=O)([O-])c1ccc(-c2c3nc(c(-c4ccc(S(=O)(=O)[O-])cc4)c4ccc([n-]4)c(-c4ccc(S(=O)(=O)[O-])cc4)c4ccc([n-]4)c(-c4ccc(S(=O)(=O)[O-])cc4)c4nc2C=C4)C=C3)cc1.[Mn+3] [Mn-TPPS4, reference compound]
T1 of cell pellet, absence of zinc [1, 10]: 1.1 s
T2 of cell pellet, non zinc-treated samples [1, 10]: 107 ms
T2 of cell pellet, zinc-treated samples ([1]; HEK-293, 100 μM 24 h): 94 ms
T1 of cell pellet, presence of zinc [1, 11]: 1.0 s
zinc-induced change of MR signal in buffered solution [2]: almost no change
zinc-induced T2 change at high ionic strength [2]: no zinc-induced T2 change

fluorescence increase on acidification [3]: less than a factor of two
extinction coefficient (ε) of Soret band [4]: 250,700 M^−1·cm^−1
membrane permeability [7]: membrane-permeable
Compound: O=S(=O)(O)c1ccc(-c2c3nc(c(-c4ccc(S(=O)(=O)O)cc4)c4ccc([nH]4)c(-c4c(NCCN(Cc5ccccn5)Cc5ccccn5)cccc4NCCN(Cc4ccccn4)Cc4ccccn4)c4nc(c(-c5ccc(S(=O)(=O)O)cc5)c5ccc2[nH]5)C=C4)C=C3)cc1 [compound 1, (DPA-C2)2-TPPS3]
selectivity of fluorescence turn-on for Zn^2+ over other metal ions [5]: selective for Zn^2+ over many other monovalent and divalent metal ions
change of intracellular red fluorescence upon addition of Zn^2+ [6]: significant increase in the red fluorescence intensity

Compound: (DPA-C2)2-Mn(III)TPPS3 [compound 2]
T1 of cell pellet, zinc-free sample [1, 10]: 510 ms
T2 of cell pellet, non zinc-treated samples [1, 10]: 69 ms
T2 of cell pellet, zinc-treated samples ([1]; HEK-293, 100 μM 24 h): 25.0 ms
T1 of cell pellet, zinc-containing sample [1, 11]: 80 ms
cell membrane permeability from relative increase in T1-weighted MR signal ([1]; HEK-293 cells, 100 μM, 24 h, TR=100 ms, TE=10 ms): greater cell membrane permeability than Mn-TPPS4
cell membrane permeability ([8]; AAS of lysed cell fractions): cell membrane-permeable
Mn in cytosol (AAS) ([8]; cells treated with 100 μM, 24 h, cytosolic fraction): 0.78 mg Mn/liter
Mn in nuclear fraction (AAS) ([8]; cells treated with 100 μM, 24 h, nuclear fraction): 5.62 mg Mn/liter
cytotoxicity (cell density vs untreated control cells) [9]: little cytoxicity
zinc-induced change of MR signal in buffered solution [2]: lowers the MR signal intensity
zinc-induced T2 change at high ionic strength [2]: zinc-induced enhancement of T2 relaxation
